The test system of experiment [1] is human mammary epithelial cell line MCF-10A. Description: MTT assay, toxicity towards normal cells. Conditions: 72 h. In kind it is cell-based. In a few lines: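 Cancer lines MCF-7 and MDA-MB-231 and non-tumour MCF-10A cells were treated 72 h with compound at 0.1–500 µM. Viability read by MTT; IC50 calculated from percent of untreated control.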
Background: Tetrazolium dyes change colour on reduction, which living cells bring about.

The test system of experiment [2] is Escherichia coli (ATCC 25922). Description: MIC/MBC broth dilution. In kind it is cell-based. In a few lines:
(§1)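 Broth dilution per CLSI; complexes at 50, 70, 100, 150 and 200 µg/mL incubated with bacteria overnight at 37 °C, growth read at 600 nm. MIC/MBC (µg/mL) assigned against vehicle (DMSO) control in LB; three independent experiments in triplicate.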

Experiment [3] has as its system Klebsiella pneumoniae (ATCC 13883). Description: MIC/MBC broth dilution. In kind it is cell-based. In short, it runs like this:
as §1
For orientation: Dilution methods test growth across graded concentrations, often in twofold steps.

The test system of experiment [4] is Staphylococcus epidermidis (ATCC 14990). Description: MIC/MBC broth dilution. In kind it is cell-based. In a few lines: (§2)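 Broth dilution per CLSI in 96-well plates: complexes at 50, 70, 100, 150 and 200 µg/mL with bacteria, 37 °C overnight. Growth read at 600 nm; MIC/MBC (µg/mL) assigned against vehicle (DMSO) growth control in LB medium. Three independent experiments in triplicate.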

For experiment [5], the system named is Enterococcus faecalis (ATCC 19433). Description: MIC/MBC broth dilution. Type of experiment: cell-based. In short, it runs like this: as §2
For experiment [6], the system named is Staphylococcus aureus (ATCC 23235). Description: MIC/MBC broth dilution. Type of experiment: cell-based. In short, it runs like this: as §2
For experiment [7], the system named is Pseudomonas aeruginosa (ATCC 15442). Kind of experiment: MIC/MBC broth dilution. Type of experiment: cell-based. In a few lines:
(§3)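 Broth dilution per CLSI; complexes at 50, 70, 100, 150 and 200 µg/mL incubated with bacteria overnight at 37 °C. Growth read at 600 nm; MIC/MBC (µg/mL) set by comparing cell density with vehicle (DMSO) control grown in LB medium.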

Experiment [8] has as its system Salmonella typhimurium (ATCC 14028). Description: MIC/MBC broth dilution. In kind it is cell-based. In a few lines:
as §3

For experiment [9], the system named is NO production in LPS-stimulated RAW 264.7 macrophages. Kind of experiment: Griess assay, NO production. Type of experiment: cell-based, murine. Conditions: 25 µM, LPS 1 µg/mL, 24 h. The procedure:
The Griess assay was performed using RAW 264.7 murine macrophages to study the anti-inflammatory activity in terms of NO production. RAW 264.7 cells were plated in the 48 multi-wells and, after 24 h, treated with the tested molecules (25 µM) and the lipopolysaccharide (LPS, Sigma Aldrich, Milan, Italy) at a final concentration of 1 µg/mL. LPS is able to induce inflammation by stimulating NO production in immune system cells such as macrophages. After 24 h, the cell medium Griess reagent (Sigma Aldrich, Milan, Italy) was mixed in with a ratio of 1:1. The Griess reagent allowed for the quantification of NO released by macrophages in the treatment medium. The mixture was left for 30 min under agitation and, subsequently, the absorbance at 540 nm was measured using a multiplate reader. The obtained absorbance allowed us to calculate the NO production % compared to the absorbance obtained for the positive control, in which the cells were treated with LPS.
On the technique in general: Griess reagent forms a coloured azo dye with nitrite.

Experiment [10] in a line: ABTS radical scavenging assay. Type of experiment: biochemical. In a few lines: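 Complexes tested at 5, 10, 25, 50 and 100 µg/mL against ABTS radical cation; absorbance at 730 nm. Scavenging expressed as percent inhibition versus control, IC50 derived from %IABTS.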
Experiment [11] relates to NF-κB localization in MDA-MB-231 cells. Kind of experiment: Immunofluorescence, NF-κB localization. Conditions: 15 µM. In kind it is cell-based, human. The procedure: After a PBS wash, cells were fixed using cold methanol (15 min at −20 °C) and incubated overnight at 4 °C with the primary antibodies raised against NF-κB, iNOS, TNF-α, and COX-1 and 2 (Santa Cruz Biotechnology Inc., Santa Cruz, CA, USA) diluted in BSA 2%, as previously described. […] DAPI (Sigma Aldrich, Milan, Italy) 0.2 µg/mL was added for 10 min for nuclei counterstaining. A fluorescence microscope (Leica DM 6000) was used for visualizing images, and LAS-X software 3.5.7.23225 was used for acquisition and processing.

Molecules are shown by their SMILES.

One may read the IC50 as the point on the concentration scale where inhibition reaches its midpoint. The low end stands for greater potency, the high end for weaker potency.

The molecule `Cn1c(=O)c2c(n(C)[c]([Au-][I])[n+]2CC(O)c2ccccc2)n(C)c1=O` (racemic) [AuL1, 1,3,7-Trimethylxanthin-9-[(2-hydroxy-2-phenyl)ethyl-8-ylidene]Au(I) Iodide] showed a 50% inhibitory concentration (IC50) in experiment [1] of more than 100 µM. In [2], the “M.B.C. E. coli” value is more than 200 µg/mL and the “M.I.C. E. coli” value amounted to 150 µg/mL. Also, in [3], the “M.B.C. K. pneumoniae” value is on record as more than 200 µg/mL and the “M.I.C. K. pneumoniae” value is 150 µg/mL. Moreover, in experiment [4], the “M.B.C. S. epidermidis” value is recorded as more than 150 µg/mL and the “M.I.C. S. epidermidis” value is listed as 125 µg/mL. For the same molecule, in experiment [5], the “M.B.C. E. faecalis” value is more than 200 µg/mL and the “M.I.C. E. faecalis” value is reported as 150 µg/mL. Further, in [6], the “M.B.C. S. aureus” value is given as more than 200 µg/mL and the “M.I.C. S. aureus” value is 150 µg/mL. Besides, in experiment [7], the “M.B.C. P. aeruginosa” value is listed as more than 125 µg/mL and the “M.I.C. P. aeruginosa” value is recorded as 100 µg/mL. In addition, in experiment [8], the “M.B.C. S. typhimurium” value was more than 200 µg/mL and the “M.I.C. S. typhimurium” value came out at 150 µg/mL. In addition, the “Reduction in NO production” value in experiment [9] is listed as approximately 6.23%. In [10], this molecule registered an IC50 of 161 ± 1 µM. In addition, the NF-κB intracellular localization result in [11] is on record as “prevalently located in the cytoplasm”.
As for `CC(=O)[O][Ag-][c]1n(C)c2c(c(=O)n(C)c(=O)n2C)[n+]1C1CCCCC1O` (stereo not drawn) [AgL2OAc, 1,3,7-Trimethylxanthin-9-[cyclohexan-2-ol-8-ylidene]Ag(I) Acetate], in [1], the IC50 was more than 100 µM. For the same molecule, in experiment [2], the “M.B.C. E. coli” value was more than 150 µg/mL and the “M.I.C. E. coli” value turned out to be 100 µg/mL. In [3], the “M.B.C. K. pneumoniae” value was more than 150 µg/mL and the “M.I.C. K. pneumoniae” value was 125 µg/mL. Also, in experiment [4], the “M.B.C. S. epidermidis” value is reported as more than 125 µg/mL and the “M.I.C. S. epidermidis” value is 100 µg/mL. For the same molecule, in [5], the “M.B.C. E. faecalis” value is reported as more than 200 µg/mL and the “M.I.C. E. faecalis” value is reported as 150 µg/mL. Further, in experiment [6], the “M.B.C. S. aureus” value was more than 150 µg/mL and the “M.I.C. S. aureus” value was 100 µg/mL. Also, in [7], the “M.B.C. P. aeruginosa” value is on record as more than 125 µg/mL and the “M.I.C. P. aeruginosa” value worked out at 100 µg/mL. In experiment [8], the “M.B.C. S. typhimurium” value is more than 200 µg/mL and the “M.I.C. S. typhimurium” value was 150 µg/mL. In addition, the “Reduction in NO production” value in [9] is given as “about 5.20%”. This molecule had an IC50 in experiment [10] of 145.4 ± 1.1 µM. The NF-κB intracellular localization result in experiment [11] is “prevalently located in the cytoplasm”.

For the origin of these results see article PMC10931745 (International Journal of Molecular Sciences, 2024).
